Measurements taken from ChEMBL document CHEMBL5331124, “Degradation of Hexokinase 2 Blocks Glycolysis and Induces GSDME-Dependent Pyroptosis to Amplify Immunogenic Cell Death for Breast Cancer Therapy” (J Med Chem, 2023).
The source made the active and inactive calls. No cut-off for these calls is given here.

Columns and labels:
[1] = biological target: T1, Hexokinase-2 (Mus musculus) (UniProt O08528); experiment: Induction of HK2 degradation in mouse 4T1 cells at 20 uM measured for 36 hrs by Western blot analysis relative to control; type: cell-based
T1 sequence (whole entry): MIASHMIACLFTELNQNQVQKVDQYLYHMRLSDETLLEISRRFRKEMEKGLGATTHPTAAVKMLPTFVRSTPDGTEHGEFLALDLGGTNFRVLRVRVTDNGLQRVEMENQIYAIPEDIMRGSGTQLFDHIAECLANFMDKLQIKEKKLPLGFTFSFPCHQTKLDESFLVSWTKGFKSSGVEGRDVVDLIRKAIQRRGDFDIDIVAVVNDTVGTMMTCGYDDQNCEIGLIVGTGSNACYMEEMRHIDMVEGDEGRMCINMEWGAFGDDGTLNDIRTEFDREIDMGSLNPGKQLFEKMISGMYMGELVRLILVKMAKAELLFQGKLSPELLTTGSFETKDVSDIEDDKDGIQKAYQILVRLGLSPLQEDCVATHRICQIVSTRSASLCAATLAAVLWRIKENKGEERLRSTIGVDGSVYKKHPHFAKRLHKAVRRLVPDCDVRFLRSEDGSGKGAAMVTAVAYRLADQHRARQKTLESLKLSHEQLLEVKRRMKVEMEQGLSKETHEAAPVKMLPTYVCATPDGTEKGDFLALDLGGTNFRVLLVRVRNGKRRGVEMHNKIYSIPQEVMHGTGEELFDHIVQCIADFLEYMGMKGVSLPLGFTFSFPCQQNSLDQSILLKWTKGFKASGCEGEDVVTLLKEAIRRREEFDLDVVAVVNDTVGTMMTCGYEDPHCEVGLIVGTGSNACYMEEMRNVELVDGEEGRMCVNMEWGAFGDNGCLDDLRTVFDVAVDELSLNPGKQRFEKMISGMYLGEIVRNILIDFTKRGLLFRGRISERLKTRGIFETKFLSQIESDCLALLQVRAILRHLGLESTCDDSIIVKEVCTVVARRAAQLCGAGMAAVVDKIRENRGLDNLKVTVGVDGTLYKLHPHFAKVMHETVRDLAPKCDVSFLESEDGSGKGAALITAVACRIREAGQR

HUVEC-T1 cell = experiment: Inhibition of colony formation in human HUVEC-T1 cell at 5 to 20 uM incubated for 48 hrs by giemsa staining based analysis; type: functional; details: dose 5-20 µM
MDA-MB-231 = experiment: Antitumor activity against human MDA-MB-231 cells xenografted in BALB/c nude mouse assessed as reduction in tumor growth at 50 mg/kg, ip measured after 28 days; type: functional, organism-based; details: time 28.0 day
[2] = biological target: T2, Hexokinase-2 (Homo sapiens) (UniProt P52789); experiment: Induction of HK2 degradation in human MDA-MB-231 cells assessed as increase in VDAC expression at 20 uM measured for 36 hrs by Western blot analysis; type: cell-based
T2 sequence (whole entry): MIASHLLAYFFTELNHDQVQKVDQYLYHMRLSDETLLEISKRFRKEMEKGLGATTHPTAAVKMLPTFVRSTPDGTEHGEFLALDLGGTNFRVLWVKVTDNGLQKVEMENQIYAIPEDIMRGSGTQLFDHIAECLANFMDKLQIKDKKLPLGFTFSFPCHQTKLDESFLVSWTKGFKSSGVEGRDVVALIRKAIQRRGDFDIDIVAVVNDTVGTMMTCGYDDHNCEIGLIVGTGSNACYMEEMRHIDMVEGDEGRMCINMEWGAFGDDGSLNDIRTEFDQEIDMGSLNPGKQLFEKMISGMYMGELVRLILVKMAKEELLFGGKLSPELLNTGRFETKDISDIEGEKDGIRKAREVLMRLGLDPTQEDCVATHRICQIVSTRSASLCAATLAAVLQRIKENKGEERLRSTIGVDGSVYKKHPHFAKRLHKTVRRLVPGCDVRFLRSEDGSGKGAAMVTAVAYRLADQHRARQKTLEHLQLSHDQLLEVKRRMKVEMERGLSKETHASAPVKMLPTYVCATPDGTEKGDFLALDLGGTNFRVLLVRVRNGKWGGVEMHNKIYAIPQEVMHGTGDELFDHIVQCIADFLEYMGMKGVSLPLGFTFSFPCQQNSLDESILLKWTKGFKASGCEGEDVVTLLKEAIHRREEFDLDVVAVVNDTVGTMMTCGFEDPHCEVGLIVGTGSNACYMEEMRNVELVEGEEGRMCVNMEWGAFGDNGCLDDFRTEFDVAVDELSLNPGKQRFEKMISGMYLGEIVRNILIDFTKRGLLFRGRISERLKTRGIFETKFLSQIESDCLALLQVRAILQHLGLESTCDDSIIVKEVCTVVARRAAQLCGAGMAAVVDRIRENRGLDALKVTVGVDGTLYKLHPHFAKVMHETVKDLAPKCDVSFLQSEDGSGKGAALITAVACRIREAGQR

4T1 [3] = experiment: Antitumor activity against mouse 4T1 cells implanted in BALB/c mouse model assessed as reduction in HK2 expression level at 50 mg/kg, ip measured after 25 days by Western blot analysis; type: functional, organism-based; details: time 25.0 day
4T1 [4] = experiment: Induction of pyroptosis in mouse 4T1 cells assessed as dead cells at 20 uM incubated for 36 hrs by annexin V-FITC staining based flow cytometry analysis (Rvb =17.6 %); type: functional
4T1 [5] = experiment: Antitumor activity against mouse 4T1 cells implanted in BALB/c mouse assessed as reduction in tumor growth at 50 mg/kg, ip measured after 23 days in presence of cisplatin; type: functional, organism-based; details: time 23.0 day
[6] = Toxicity in BALB/c mouse implanted with mouse 4T1 cells assessed as effect on red blood cells at 50 mg/kg, ip measured after 25 days by routine blood test; type: organism-based; details: in vivo, 600 h, time 25 day
[7] = biological target: T1, Hexokinase-2 (Mus musculus); experiment: Induction of HK2 degradation in mouse 4T1 cells upto 200 uM measured at 12 to 36 hrs; type: cell-based; details: time 12-36 hrs
[8] = Toxicity in BALB/c nude mouse xenografted with human MDA-MB-231 cells assessed as effect on platelet count at 50 mg/kg, ip measured after 30 days by routine blood test; type: organism-based; details: in vivo, 720 h, time 30 day
4T1 [9] = experiment: Antitumor immunity against mouse 4T1 cells implanted in BALB/c mouse model assessed as increase in cleaved caspase-3 expression in tumor; type: functional, cell-based
4T1 [10] = experiment: Antitumor immunity against mouse 4T1 cells implanted in BALB/c mouse model assessed as reduction tumor cell proliferation at 50 mg/kg, ip measured after 25 days by Ki67 staining based analysis; type: functional, organism-based; details: time 25.0 day
4T1 [11] = experiment: Induction of pyroptosis in mouse 4T1 cells assessed as early apoptotic cells at 20 uM incubated for 36 hrs by annexin V-FITC staining based flow cytometry analysis (reference value: 4.76 %); type: functional
4T1 [12] = experiment: Antitumor immunity activity against mouse 4T1 cells implanted in BALB/c mouse assessed as increase in proportion of cytotoxic CD8 positive T cells in tumor by flow cytometry analysis; type: functional, cell-based
[13] = Toxicity in BALB/c nude mouse xenografted with human MDA-MB-231 cells assessed as effect on mean corpuscular hemoglobin concentration at 50 mg/kg, ip measured after 30 days by routine blood test; type: organism-based; details: in vivo, 720 h, time 30 day
[14] = biological target: T2, Hexokinase-2 (Homo sapiens); experiment: Induction of HK2 degradation in human MDA-MB-231 cells upto 200 uM measured at 12 to 36 hrs; type: cell-based; details: time 12-36 hrs

O=C1CCC(N2C(=O)c3cccc(NCCCCNC(=O)c4nn(Cc5ccc(Cl)cc5Cl)c5ccccc45)c3C2=O)C(=O)N1 (stereo unspecified)
Activity [1]: 71.1% | inhibition (HUVEC-T1 cell): inactive | Activity (MDA-MB-231): Active | Activity [2]: Active | Activity (4T1 [3]): Active | Activity (4T1 [4]): 9.44% | Activity (4T1 [5]): Active | Activity [6]: Non-Toxic | Activity [7]: Active | Activity [8]: Non-Toxic | Activity (4T1 [9]): Active | Activity (4T1 [10]): Active | Activity (4T1 [11]): 9.85% | Activity (4T1 [12]): Active | Activity [13]: Non-Toxic | Activity [14]: Active
